In publication PMC10700596 (Nature Communications, 2023):
Several values for one entry are separate records, joined by “and”; a condition that tells them apart may be missing. Identical values can stand only once. Entries after “also recorded” stand apart in the source; their conditions may differ.

Assays:
EP4R = molecular target: T1, EP4R (Homo sapiens, UniProt P35408); experiment: biochemical; format: binding; conditions: 3H-PGE2; read-out: Radiologand displacement Ki
T1 construct: Tango fusion cassette (only 'tango' is printed); expressed in transfected cells; host or cells: HTLA cells (tTA-dependent luciferase reporter, β-arrestin2-TEV fusion)

EP4R Thr76Ala mutant = EP4R Thr76Ala mutant (Homo sapiens, UniProt P35408, T76A); format: cell-based; conditions: IC50 vs WT EP4R
From the text: three independent experiments. Source data are provided as a Source Data file.
(§1) (1 picture or pasted object on this page, not shown here)

EP1R = EP1R (Homo sapiens, UniProt P34995); experiment: Radioligand (3H-PGE2) displacement assay at EP1R; format: binding
97 human kinases = format: binding; conditions: 10 µM
From the text: . […] This panel includes several adverse drug reaction receptors such as the serotonin receptor 5HT2b, M1 and M2 muscarinic receptors and adrenergic receptors. […]. page 7:
Supplementary Figure 7: Non-GPCR off-target screening for 74. a)-e) Dose-response curves of 74 at […]
proliferator-activated receptor gamma (PPARγ, Eurofins item G124). Data in a)-e) and g)-i) represent two technical replicates. Source data are provided as a Source Data file.
as §1
Description of Additional Supplementary Files
File Name: Supplementary Data 1
Description: List of all compounds described in this work.
For each compound, the compound number, the virtual library code (ZINC / Design ID), the Enamine catalog code (Enamine catalog ID), 2D information (SMILES) and a brief description whether the compound was derived from virtual screening or optimization of initial hits (Set) are provided. For virtual screening compounds, the displacement of radiolabeled 3HPGE2 at 10 µM in the initial binding assay at […]
For hit compounds, logIC50, IC50 and Ki in the EP4R PRESTO-Tango or EP4R Arrestin-BRET assays are shown. For lead compounds, the Kb in the EP4R cAMP Assay and Ki from the EP4R radioligand displacement assay are listed.
File Name: Supplementary Data 2
Description: Off-target screening of compound 74 against a panel of 97 human kinases (KINOMEscan, […]

[1] = molecular target: ABL1(T315I)-phosphorylated (Homo sapiens, UniProt P00519, T315I); experiment: biochemical; format: binding; conditions: 10000 nM; read-out: Percent Control
AXL = AXL (Homo sapiens, UniProt P30530); experiment: biochemical; format: binding; conditions: 10000 nM; read-out: Percent Control
CSNK1D = CSNK1D (Homo sapiens, UniProt P48730); experiment: biochemical; format: binding; conditions: 10000 nM; read-out: Percent Control
CSNK1G2 = CSNK1G2 (Homo sapiens, UniProt P78368); experiment: biochemical; format: binding; conditions: 10000 nM; read-out: Percent Control
EPHA2 = EPHA2 (Homo sapiens, UniProt P29317); experiment: biochemical; format: binding; conditions: 10000 nM; read-out: Percent Control
ERBB4 = ERBB4 (Homo sapiens, UniProt Q15303); experiment: biochemical; format: binding; conditions: 10000 nM; read-out: Percent Control
IGF1R = IGF1R (Homo sapiens, UniProt P08069); experiment: biochemical; format: binding; conditions: 10000 nM; read-out: Percent Control
From the text: (§2) Source data are provided as a Source Data file.

KIT = KIT (Homo sapiens, UniProt P10721); experiment: biochemical; format: binding; conditions: 10000 nM; read-out: Percent Control
From the text: as §2

KIT(D816V) = KIT(D816V) (Homo sapiens, UniProt P10721, D816V); experiment: biochemical; format: binding; conditions: 10000 nM; read-out: Percent Control
From the text: as §2

KIT(V559D,T670I) = KIT(V559D,T670I) (Homo sapiens, UniProt P10721, T670I/V559D); experiment: biochemical; format: binding; conditions: 10000 nM; read-out: Percent Control
From the text: as §2

MAP3K4 = MAP3K4 (Homo sapiens, UniProt Q9Y6R4); experiment: biochemical; format: binding; conditions: 10000 nM; read-out: Percent Control
From the text: as §2

MARK3 = MARK3 (Homo sapiens, UniProt P27448); experiment: biochemical; format: binding; conditions: 10000 nM; read-out: Percent Control
From the text: as §2

MEK2 = MEK2 (Homo sapiens, UniProt P36507); experiment: biochemical; format: binding; conditions: 10000 nM; read-out: Percent Control
From the text: as §2

MKNK1 = MKNK1 (Homo sapiens, UniProt Q9BUB5); experiment: biochemical; format: binding; conditions: 10000 nM; read-out: Percent Control
From the text: as §2

MKNK2 = MKNK2 (Homo sapiens, UniProt Q9HBH9); experiment: biochemical; format: binding; conditions: 10000 nM; read-out: Percent Control
From the text: as §2

PCTK1 = PCTK1 (Homo sapiens, UniProt Q00536); experiment: biochemical; format: binding; conditions: 10000 nM; read-out: Percent Control
From the text: as §2

PDGFRA = PDGFRA (Homo sapiens, UniProt P16234); experiment: biochemical; format: binding; conditions: 10000 nM; read-out: Percent Control
From the text: as §2

PDGFRB = PDGFRB (Homo sapiens, UniProt P09619); experiment: biochemical; format: binding; conditions: 10000 nM; read-out: Percent Control
From the text: as §2

PIK3C2B = PIK3C2B (Homo sapiens, UniProt O00750); experiment: biochemical; format: binding; conditions: 10000 nM; read-out: Percent Control
From the text: as §2

PIM2 = PIM2 (Homo sapiens, UniProt Q9P1W9); experiment: biochemical; format: binding; conditions: 10000 nM; read-out: Percent Control
From the text: as §2

PIM3 = PIM3 (Homo sapiens, UniProt Q86V86); experiment: biochemical; format: binding; conditions: 10000 nM; read-out: Percent Control
From the text: as §2

PLK1 = PLK1 (Homo sapiens, UniProt P53350); experiment: biochemical; format: binding; conditions: 10000 nM; read-out: Percent Control
From the text: as §2

RET = RET (Homo sapiens, UniProt P07949); experiment: biochemical; format: binding; conditions: 10000 nM; read-out: Percent Control
From the text: as §2

RIOK2 = RIOK2 (Homo sapiens, UniProt Q9BVS4); experiment: biochemical; format: binding; conditions: 10000 nM; read-out: Percent Control
From the text: as §2

VEGFR2 = VEGFR2 (Homo sapiens, UniProt P35968); experiment: biochemical; format: binding; conditions: 10000 nM; read-out: Percent Control
From the text: as §2

p38-beta = p38-beta (Homo sapiens, UniProt Q15759); experiment: biochemical; format: binding; conditions: 10000 nM; read-out: Percent Control
From the text: as §2

TGFBR1 = TGFBR1 (Homo sapiens, UniProt P36897); experiment: biochemical; format: binding; conditions: 10000 nM; read-out: Percent Control
mice = format: in vivo
[2] = cited from earlier work

VEGFR2, sequence (P35968 20-1356): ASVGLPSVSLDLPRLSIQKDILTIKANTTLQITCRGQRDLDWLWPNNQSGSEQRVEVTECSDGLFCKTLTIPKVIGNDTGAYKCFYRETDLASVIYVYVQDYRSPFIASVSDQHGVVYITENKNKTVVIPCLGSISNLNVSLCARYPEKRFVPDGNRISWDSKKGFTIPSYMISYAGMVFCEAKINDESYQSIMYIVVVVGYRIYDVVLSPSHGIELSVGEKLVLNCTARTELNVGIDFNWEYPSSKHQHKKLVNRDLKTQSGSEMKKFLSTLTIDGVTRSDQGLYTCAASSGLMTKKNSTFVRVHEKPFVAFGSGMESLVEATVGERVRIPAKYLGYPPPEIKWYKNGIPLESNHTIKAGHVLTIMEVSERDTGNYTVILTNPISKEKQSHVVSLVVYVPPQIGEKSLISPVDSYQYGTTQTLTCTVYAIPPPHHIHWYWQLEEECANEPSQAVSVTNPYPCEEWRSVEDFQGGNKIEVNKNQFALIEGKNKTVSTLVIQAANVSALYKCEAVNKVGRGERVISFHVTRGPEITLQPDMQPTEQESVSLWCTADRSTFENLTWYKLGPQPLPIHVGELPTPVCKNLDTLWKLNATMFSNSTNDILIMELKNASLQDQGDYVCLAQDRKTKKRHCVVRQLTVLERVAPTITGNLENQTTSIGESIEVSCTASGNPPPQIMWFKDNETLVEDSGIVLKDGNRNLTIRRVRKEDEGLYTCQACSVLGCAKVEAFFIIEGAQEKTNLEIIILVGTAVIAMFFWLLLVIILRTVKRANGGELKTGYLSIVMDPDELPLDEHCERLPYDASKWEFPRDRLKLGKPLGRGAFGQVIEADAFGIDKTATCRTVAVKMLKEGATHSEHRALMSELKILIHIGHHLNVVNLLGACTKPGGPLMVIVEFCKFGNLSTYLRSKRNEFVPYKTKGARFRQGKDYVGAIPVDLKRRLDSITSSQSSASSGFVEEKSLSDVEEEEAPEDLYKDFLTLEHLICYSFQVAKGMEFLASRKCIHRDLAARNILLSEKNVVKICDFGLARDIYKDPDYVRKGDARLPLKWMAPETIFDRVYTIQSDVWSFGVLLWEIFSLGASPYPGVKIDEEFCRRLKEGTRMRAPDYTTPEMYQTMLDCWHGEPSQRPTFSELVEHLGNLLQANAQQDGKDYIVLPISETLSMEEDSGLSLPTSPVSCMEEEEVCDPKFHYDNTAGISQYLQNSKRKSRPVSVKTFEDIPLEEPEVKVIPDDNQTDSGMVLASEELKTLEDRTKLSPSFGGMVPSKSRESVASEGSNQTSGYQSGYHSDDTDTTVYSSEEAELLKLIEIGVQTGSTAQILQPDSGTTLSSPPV
EPHA2, sequence (P29317 24-976): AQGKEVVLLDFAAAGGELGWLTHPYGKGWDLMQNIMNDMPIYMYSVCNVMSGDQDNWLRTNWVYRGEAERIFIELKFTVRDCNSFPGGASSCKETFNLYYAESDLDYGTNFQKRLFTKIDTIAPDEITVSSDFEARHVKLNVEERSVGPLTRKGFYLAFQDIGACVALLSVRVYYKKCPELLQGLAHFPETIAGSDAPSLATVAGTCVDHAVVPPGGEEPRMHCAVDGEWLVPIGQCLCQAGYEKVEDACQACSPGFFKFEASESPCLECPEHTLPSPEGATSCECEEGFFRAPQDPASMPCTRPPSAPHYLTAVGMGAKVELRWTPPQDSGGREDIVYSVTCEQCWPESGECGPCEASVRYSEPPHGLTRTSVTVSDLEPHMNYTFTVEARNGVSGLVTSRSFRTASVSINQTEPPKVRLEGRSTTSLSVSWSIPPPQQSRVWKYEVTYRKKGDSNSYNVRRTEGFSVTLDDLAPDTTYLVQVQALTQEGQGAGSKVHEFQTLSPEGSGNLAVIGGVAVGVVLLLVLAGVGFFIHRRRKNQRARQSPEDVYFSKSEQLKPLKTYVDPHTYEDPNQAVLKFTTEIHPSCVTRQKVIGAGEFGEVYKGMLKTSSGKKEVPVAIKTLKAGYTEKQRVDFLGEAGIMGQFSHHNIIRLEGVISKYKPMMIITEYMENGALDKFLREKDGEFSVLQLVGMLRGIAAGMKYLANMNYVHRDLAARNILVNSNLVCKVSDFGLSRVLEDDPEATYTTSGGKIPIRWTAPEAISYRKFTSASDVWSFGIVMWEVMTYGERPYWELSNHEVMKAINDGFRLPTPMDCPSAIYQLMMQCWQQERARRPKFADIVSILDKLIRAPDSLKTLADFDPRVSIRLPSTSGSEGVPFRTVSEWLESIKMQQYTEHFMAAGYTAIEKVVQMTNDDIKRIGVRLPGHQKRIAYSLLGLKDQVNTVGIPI
KIT(D816V), sequence (P10721 26-976 D816V): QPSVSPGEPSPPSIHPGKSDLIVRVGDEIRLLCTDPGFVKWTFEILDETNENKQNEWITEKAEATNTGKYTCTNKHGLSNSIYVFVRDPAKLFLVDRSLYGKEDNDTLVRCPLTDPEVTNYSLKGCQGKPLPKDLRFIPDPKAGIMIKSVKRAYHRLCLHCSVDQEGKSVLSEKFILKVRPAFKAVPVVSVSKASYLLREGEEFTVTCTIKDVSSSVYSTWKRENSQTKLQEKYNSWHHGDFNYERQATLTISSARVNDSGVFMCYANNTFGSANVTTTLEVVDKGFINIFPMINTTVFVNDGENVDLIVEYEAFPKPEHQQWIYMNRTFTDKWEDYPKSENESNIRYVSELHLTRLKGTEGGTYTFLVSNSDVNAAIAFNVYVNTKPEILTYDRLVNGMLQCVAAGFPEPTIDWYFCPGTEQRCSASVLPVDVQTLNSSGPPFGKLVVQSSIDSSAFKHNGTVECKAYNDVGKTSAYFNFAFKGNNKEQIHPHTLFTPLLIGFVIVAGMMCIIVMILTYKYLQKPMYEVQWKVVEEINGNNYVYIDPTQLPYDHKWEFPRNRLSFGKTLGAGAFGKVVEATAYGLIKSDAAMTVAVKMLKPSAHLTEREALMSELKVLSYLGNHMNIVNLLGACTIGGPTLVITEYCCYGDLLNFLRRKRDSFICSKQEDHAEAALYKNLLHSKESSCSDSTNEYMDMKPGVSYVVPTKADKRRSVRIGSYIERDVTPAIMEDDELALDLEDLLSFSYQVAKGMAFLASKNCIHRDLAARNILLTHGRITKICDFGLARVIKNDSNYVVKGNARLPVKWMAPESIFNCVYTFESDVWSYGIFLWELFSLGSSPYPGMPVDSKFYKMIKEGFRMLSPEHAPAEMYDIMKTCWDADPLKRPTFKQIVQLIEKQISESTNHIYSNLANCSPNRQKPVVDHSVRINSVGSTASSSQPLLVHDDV
PDGFRA, sequence (P16234 24-1089): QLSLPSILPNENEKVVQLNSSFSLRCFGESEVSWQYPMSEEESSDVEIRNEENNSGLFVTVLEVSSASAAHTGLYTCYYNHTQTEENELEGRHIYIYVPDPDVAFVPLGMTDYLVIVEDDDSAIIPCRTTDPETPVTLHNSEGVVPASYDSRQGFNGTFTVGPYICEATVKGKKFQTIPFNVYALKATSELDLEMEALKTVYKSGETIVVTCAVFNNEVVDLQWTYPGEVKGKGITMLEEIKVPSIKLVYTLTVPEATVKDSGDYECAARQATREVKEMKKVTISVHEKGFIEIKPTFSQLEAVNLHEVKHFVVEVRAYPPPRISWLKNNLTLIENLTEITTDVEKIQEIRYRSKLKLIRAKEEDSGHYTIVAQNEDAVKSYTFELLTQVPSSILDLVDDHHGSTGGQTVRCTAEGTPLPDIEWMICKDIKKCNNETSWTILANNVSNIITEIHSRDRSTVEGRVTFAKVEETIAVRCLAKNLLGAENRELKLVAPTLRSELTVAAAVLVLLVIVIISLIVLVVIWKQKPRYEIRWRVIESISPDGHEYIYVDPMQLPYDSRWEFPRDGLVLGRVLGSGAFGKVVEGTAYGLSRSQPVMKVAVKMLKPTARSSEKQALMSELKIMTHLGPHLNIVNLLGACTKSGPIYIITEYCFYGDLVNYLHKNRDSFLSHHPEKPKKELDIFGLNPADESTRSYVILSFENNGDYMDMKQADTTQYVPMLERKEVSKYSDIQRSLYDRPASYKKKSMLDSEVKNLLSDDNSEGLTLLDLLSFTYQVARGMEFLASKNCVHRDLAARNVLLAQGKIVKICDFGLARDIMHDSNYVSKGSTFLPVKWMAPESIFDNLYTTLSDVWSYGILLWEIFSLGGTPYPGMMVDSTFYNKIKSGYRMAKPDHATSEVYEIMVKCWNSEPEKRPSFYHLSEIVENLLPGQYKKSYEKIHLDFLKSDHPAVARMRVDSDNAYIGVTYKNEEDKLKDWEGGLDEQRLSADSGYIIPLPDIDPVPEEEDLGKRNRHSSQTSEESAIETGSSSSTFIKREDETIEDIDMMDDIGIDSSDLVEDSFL
KIT, sequence (P10721 26-976): as the sequence (P10721 26-976 D816V) above, with V791D counted along it
PCTK1, sequence (Q00536 whole entry): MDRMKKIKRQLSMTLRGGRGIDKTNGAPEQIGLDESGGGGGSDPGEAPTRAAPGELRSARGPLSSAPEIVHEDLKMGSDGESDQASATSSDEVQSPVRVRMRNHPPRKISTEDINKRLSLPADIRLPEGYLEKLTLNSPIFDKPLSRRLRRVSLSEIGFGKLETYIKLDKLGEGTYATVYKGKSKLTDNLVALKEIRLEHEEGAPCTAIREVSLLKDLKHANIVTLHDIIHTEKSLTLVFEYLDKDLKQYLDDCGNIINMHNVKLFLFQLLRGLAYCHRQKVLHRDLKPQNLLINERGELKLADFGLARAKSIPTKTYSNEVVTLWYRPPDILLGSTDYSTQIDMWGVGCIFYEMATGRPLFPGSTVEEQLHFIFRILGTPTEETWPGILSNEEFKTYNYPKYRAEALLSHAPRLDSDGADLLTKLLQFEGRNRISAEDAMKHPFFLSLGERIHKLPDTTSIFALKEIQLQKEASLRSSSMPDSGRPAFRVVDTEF
KIT(V559D,T670I), sequence (P10721 26-976 V559D/T670I): as the sequence (P10721 26-976 D816V) above, with V534D, T645I, V791D counted along it

With `O=C(O)C1CCC2(CC1)CC(Nc1ncnc3[nH]c4c(F)cccc4c13)C2` (stereo not shown) [Compound 74, OC(=O)C1CCC2(CC(C2)NC=3N=CN=C4NC=5C(F)=CC=CC5C34)CC1] the Ki (EP4R) was 366 nM, the “reduced potency at the Thr76Ala mutant” value (EP4R Thr76Ala mutant) was 30 fold and the “binding to EP1 receptor” value (EP1R) was “no binding”. For the same compound, the “inhibition in kinase panel” value (97 human kinases) was “notable inhibition of five kinases”, the remaining activity at 10 µM [1] was 82% and the remaining activity at 10 µM (AXL) was 47%. The remaining activity at 10 µM (CSNK1D) was 3.2%, the remaining activity at 10 µM (CSNK1G2) was 54% and the remaining activity at 10 µM (EPHA2) was 83%. It also gave a remaining activity at 10 µM (ERBB4) of 99%, a remaining activity at 10 µM (IGF1R) of 100% and a remaining activity at 10 µM (KIT) of 75%. The remaining activity at 10 µM (KIT(D816V)) was 76%, the remaining activity at 10 µM (KIT(V559D,T670I)) was 56% and the remaining activity at 10 µM (MAP3K4) was 92%. It also gave a remaining activity at 10 µM (MARK3) of 81%, a remaining activity at 10 µM (MEK2) of 23% and a remaining activity at 10 µM (MKNK1) of 72%. The remaining activity at 10 µM (MKNK2) was 62%, the remaining activity at 10 µM (PCTK1) was 94% and the remaining activity at 10 µM (PDGFRA) was 35%. For the same compound, the remaining activity at 10 µM (PDGFRB) was 60%, the remaining activity at 10 µM (PIK3C2B) was 74% and the remaining activity at 10 µM (PIM2) was 100%. For the same compound, the remaining activity at 10 µM (PIM3) was 53%, the remaining activity at 10 µM (PLK1) was 100% and the remaining activity at 10 µM (RET) was 5.9%. For the same compound, the remaining activity at 10 µM (RIOK2) was 54%, the remaining activity at 10 µM (VEGFR2) was 31% and the remaining activity at 10 µM (p38-beta) was 79%. It also gave a remaining activity at 10 µM (TGFBR1) of 54%.

In the case of `O=C([O-])C1CCC2(CC1)CC(Nc1ncnc3[nH]c4c(F)cccc4c13)C2.[Na+]` (stereo not shown) [Compound 77, [Na+].[O-]C(=O)C1CCC2(CC(C2)NC=3N=CN=C4NC=5C(F)=CC=CC5C34)CC1], the “PGE2-induced allodynia, mechanical threshold (von Frey)” value (mice; 30 mg/kg IP, 30 min before 10 µg intraplantar PGE2, individual animals) is reported as 121.3 and 118.3 and 44.9 and 101.1 and 46.9 and the “effect on PGE2-induced mechanical hypersensitivity” value (mice; mouse, in vivo) is reported as “dose-dependently prevented mechanical hypersensitivity; also recorded: dose-dependently reduces mechanical allodynia”.

In the case of `CCc1nc2c(C)nc(C)cc2n1-c1ccc(CCNC(=O)NS(=O)(=O)c2ccc(C)cc2)cc1` [Grapiprant, reference compound], the reported oral bioavailability [2] is given as 5%.
